In ChEMBL document CHEMBL4627399, “Synthesis and Structure-Activity Relationships of 5'-Aryl-14-alkoxypyridomorphinans: Identification of a μ Opioid Receptor Agonist/δ Opioid Receptor Antagonist Ligand with Systemic Antinociceptive Activity and Diminished Opioid Side Effects” (J Med Chem, 2020):
pEC50, pIC50, pKi: −log10 of the molar value.

Key:
[1] = Stability in human liver microsomes at 1 uM measured up to 60 mins by LC-MS/MS analysis; assay type: ADME, Microsome; conditions: 1 h
[2] = biological target: T1, Delta-type opioid receptor (Homo sapiens, UniProt P41143); experiment: Displacement of [3H]-diprenorphine from human delta opioid receptor expressed in CHO cell membranes incubated for 1 hr by competition radioligand binding assay
[3] = biological target: Kappa-type opioid receptor (Homo sapiens, UniProt P41145); experiment: Displacement of [3H]-diprenorphine from human kappa opioid receptor expressed in CHO cell membranes incubated for 1 hr by competition radioligand binding assay
[4] = biological target: T2, Mu-type opioid receptor (Homo sapiens, UniProt P35372); experiment: biochemical; assay type: cell-based, CHO
[5] = biological target: T1, Delta-type opioid receptor; experiment: Antagonist activity at human delta opioid receptor expressed in CHO cell membranes assessed as reduction in SNC80-induced [35S]GTPgammaS binding preincubated for 5 mins followed by SNC80 addition and measured after 1 hr; assay type: functional
[6] = biological target: T2, Mu-type opioid receptor; experiment: biochemical

| Compound | Stability [1] | pKi [2] | pKi [3] | pKi [4] | pIC50 [5] | pEC50 [6] |
| --- | --- | --- | --- | --- | --- | --- |
| Oc1ccc2c3c1O[C@H]1c4ncc(-c5ccc(F)c(F)c5)cc4C[C@@]4(OCCCc5ccccc5)[C@@H](C2)N(CC2CC2)CC[C@]314 | Stable | 8.12 | 7.15 | 6.43 | – | – |
| Oc1ccc2c3c1O[C@H]1c4ncc(-c5ccccc5C5CC5)cc4C[C@@]4(OCCCc5ccccc5)[C@@H](C2)N(CC2CC2)CC[C@]314 | Stable | 7.19 | 6.76 | 6.87 | 8.61 | 6.85 |
| Oc1ccc2c3c1O[C@H]1c4ncc(-c5ccccn5)cc4C[C@@]4(OCCCc5ccccc5)[C@@H](C2)N(CC2CC2)CC[C@]314 | Stable | 8.19 | 7.72 | 6.98 | 9.29 | 6.28 |
| Cc1cccc(C)c1-c1cnc2c(c1)C[C@@]1(OCCCc3ccccc3)[C@H]3Cc4ccc(O)c5c4[C@@]1(CCN3CC1CC1)[C@H]2O5 | Stable | 7.03 | 6.87 | 6.60 | 7.29 | 8.47 |
| Oc1ccc2c3c1O[C@H]1c4ncc(-c5ccc(Cl)cc5)cc4C[C@@]4(OCCCc5ccccc5)[C@@H](C2)N(CC2CC2)CC[C@]314 | Stable | – | – | – | – | – |
| CC(=O)Nc1cccc(-c2cnc3c(c2)C[C@@]2(OCCCc4ccccc4)[C@H]4Cc5ccc(O)c6c5[C@@]2(CCN4CC2CC2)[C@H]3O6)c1 | Stable | < 5.48 | 6.22 | 6.47 | – | – |
| Oc1ccc2c3c1O[C@H]1c4ncc(-c5ccc(F)cc5F)cc4C[C@@]4(OCCCc5ccccc5)[C@@H](C2)N(CC2CC2)CC[C@]314 | Stable | 7.27 | 7.44 | 6.77 | 8.49 | 6.89 |
| Oc1cccc(-c2cnc3c(c2)C[C@@]2(OCCCc4ccccc4)[C@H]4Cc5ccc(O)c6c5[C@@]2(CCN4CC2CC2)[C@H]3O6)c1 | Stable | 8.08 | 7.74 | 7.89 | 8.89 | 8.95 |
| Oc1ccc2c3c1O[C@H]1c4ncc(-c5ccccc5)cc4C[C@@]4(OCCCCc5ccccc5)[C@@H](C2)N(CC2CC2)CC[C@]314 | Stable | 7.84 | 7.24 | 7.04 | 7.18 | 7.61 |
| Cc1ccccc1-c1cnc2c(c1)C[C@@]1(OCCCc3ccccc3)[C@H]3Cc4ccc(O)c5c4[C@@]1(CCN3CC1CC1)[C@H]2O5 | Stable | 7.01 | 6.82 | 6.63 | 7.84 | 8.26 |
| Cc1nocc1-c1cnc2c(c1)C[C@@]1(OCCCc3ccccc3)[C@H]3Cc4ccc(O)c5c4[C@@]1(CCN3CC1CC1)[C@H]2O5 | Stable | 7.19 | 7.64 | 7.00 | 9.17 | 8.46 |
| CC(=O)Nc1ccc(-c2cnc3c(c2)C[C@@]2(OCCCc4ccccc4)[C@H]4Cc5ccc(O)c6c5[C@@]2(CCN4CC2CC2)[C@H]3O6)cc1 | Stable | 6.40 | 7.82 | 6.80 | – | – |
| Cc1ccc(-c2cnc3c(c2)C[C@@]2(OCCCc4ccccc4)[C@H]4Cc5ccc(O)c6c5[C@@]2(CCN4CC2CC2)[C@H]3O6)cc1 | Stable | 7.46 | 6.99 | 6.72 | 8.44 | 8.64 |
| Oc1ccc2c3c1O[C@H]1c4ncc(-c5ccccc5)cc4C[C@@]4(OCCCC5CCOCC5)[C@@H](C2)N(CC2CC2)CC[C@]314 | Stable | 7.19 | 7.61 | – | > 9.77 | – |
